# Source: PubChem BioAssay AID1963829 (Molecular Pharmacology Branch, DTP, NCI, 2024)
# pIC50: −log10 of the molar value.
# Test system: 935938-334-R-J1-PDC complex spheroid viability
# Test: Anticancer human tumor 935938-334-R-J1-PDC patient-derived small intestine adenocarcinoma cell line growth inhibition [POLQ]
# Conditions: for pIC50: curve of first compound; for viability, T/C: stronger effect = lower value
# Procedure, shortened: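 Growth inhibition in 3D: complex spheroids (tumor PDC, HUVEC, MSC) treated with POLQ inhibitor combinations; where Cmax unknown, highest tested concentration 10 microM, except SN-38 at 1 microM.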
# [1] = second compound 0.0316 µM, first compound 0.0316 µM
# [2] = second compound 0.0316 µM, first compound 0.1 µM
# [3] = second compound 0.0316 µM, first compound 0.316 µM
# [4] = second compound 0.0316 µM, first compound 1 µM
# [5] = second compound 0.0316 µM, first compound 3.16 µM
# [6] = second compound 0.0316 µM, first compound 10 µM
# [7] = second compound 0.1 µM, first compound 0.0316 µM
# [8] = second compound 0.1 µM, first compound 0.1 µM
# [9] = second compound 0.1 µM, first compound 0.316 µM
# [10] = second compound 0.1 µM, first compound 1 µM
# [11] = second compound 0.1 µM, first compound 3.16 µM
# [12] = second compound 0.1 µM, first compound 10 µM
# [13] = second compound 0.316 µM, first compound 0.0316 µM
# [14] = second compound 0.316 µM, first compound 0.1 µM
# [15] = second compound 0.316 µM, first compound 0.316 µM
# [16] = second compound 0.316 µM, first compound 1 µM
# [17] = second compound 0.316 µM, first compound 3.16 µM
# [18] = second compound 0.316 µM, first compound 10 µM
# [19] = second compound 1 µM, first compound 0.0316 µM
# [20] = second compound 1 µM, first compound 0.1 µM
# [21] = second compound 1 µM, first compound 0.316 µM
# [22] = second compound 1 µM, first compound 1 µM
# [23] = second compound 1 µM, first compound 3.16 µM
# [24] = second compound 1 µM, first compound 10 µM
# [25] = second compound 3.16 µM, first compound 0.0316 µM
# [26] = second compound 3.16 µM, first compound 0.1 µM
# [27] = second compound 3.16 µM, first compound 0.316 µM
# [28] = second compound 3.16 µM, first compound 1 µM
# [29] = second compound 3.16 µM, first compound 3.16 µM
# [30] = second compound 3.16 µM, first compound 10 µM
# [31] = second compound 10 µM, first compound 0.0316 µM
# [32] = second compound 10 µM, first compound 0.1 µM
# [33] = second compound 10 µM, first compound 0.316 µM
# [34] = second compound 10 µM, first compound 1 µM
# [35] = second compound 10 µM, first compound 3.16 µM
# [36] = second compound 10 µM, first compound 10 µM
# 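Also: spheroids exposed to drugs for seven days before viability read.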
# 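For viability, T/C in this document: 100% = DMSO vehicle control wells.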
compound,measurement,setting,value
O=C(Nc1ccc(O)c(NS(=O)(=O)c2ccc(F)cc2)c1)c1ccc(-c2ccccc2)cc1 + Nc1ccc(C#CCN(C(=O)Cc2ncc(C(F)(F)F)cc2C(F)(F)F)c2ccc(F)cc2)nn1,pIC50,second compound 0.0316 µM,< 5.00
same,pIC50,second compound 0.1 µM,< 5.00
same,pIC50,second compound 0.316 µM,< 5.00
same,pIC50,second compound 1 µM,< 5.00
same,pIC50,second compound 3.16 µM,< 5.00
same,pIC50,second compound 10 µM,5.11
same,"viability, T/C",[1],107%
same,"viability, T/C",[2],120%
same,"viability, T/C",[3],108%
same,"viability, T/C",[4],89.2%
same,"viability, T/C",[5],81.7%
same,"viability, T/C",[6],64.6%
same,"viability, T/C",[7],91.9%
same,"viability, T/C",[8],83.1%
same,"viability, T/C",[9],91.3%
same,"viability, T/C",[10],106%
same,"viability, T/C",[11],104%
same,"viability, T/C",[12],79%
same,"viability, T/C",[13],112%
same,"viability, T/C",[14],92.9%
same,"viability, T/C",[15],96.8%
same,"viability, T/C",[16],110%
same,"viability, T/C",[17],112%
same,"viability, T/C",[18],67.2%
same,"viability, T/C",[19],83.1%
same,"viability, T/C",[20],105%
same,"viability, T/C",[21],114%
same,"viability, T/C",[22],126%
same,"viability, T/C",[23],112%
same,"viability, T/C",[24],59.4%
same,"viability, T/C",[25],91.8%
same,"viability, T/C",[26],98%
same,"viability, T/C",[27],111%
same,"viability, T/C",[28],101%
same,"viability, T/C",[29],116%
same,"viability, T/C",[30],70.9%
same,"viability, T/C",[31],127%
same,"viability, T/C",[32],85.6%
same,"viability, T/C",[33],101%
same,"viability, T/C",[34],94.5%
same,"viability, T/C",[35],99.5%
same,"viability, T/C",[36],35.9%
C=CCn1c(=O)c2cnc(Nc3ccc(N4CCN(C)CC4)cc3)nc2n1-c1cccc(C(C)(C)O)n1 + COC1C(OC(N)=O)C(O)C(Oc2ccc3c(O)c(NC(=O)c4ccc(O)c(CC=C(C)C)c4)c(=O)oc3c2C)OC1(C)C,pIC50,second compound 0.0316 µM,6.19
same,pIC50,second compound 0.1 µM,6.23
same,pIC50,second compound 0.316 µM,6.14
same,pIC50,second compound 1 µM,6.23
same,pIC50,second compound 3.16 µM,6.21
same,pIC50,second compound 10 µM,6.41
same,"viability, T/C","second compound 0.0316 µM, first compound 0.00316 µM",97.9%
same,"viability, T/C","second compound 0.0316 µM, first compound 0.01 µM",135%
same,"viability, T/C",[1],82.4%
same,"viability, T/C",[2],135%
same,"viability, T/C",[3],84.5%
same,"viability, T/C",[4],29.5%
same,"viability, T/C","second compound 0.1 µM, first compound 0.00316 µM",136%
same,"viability, T/C","second compound 0.1 µM, first compound 0.01 µM",111%
same,"viability, T/C",[7],88.8%
same,"viability, T/C",[8],134%
same,"viability, T/C",[9],71.4%
same,"viability, T/C",[10],32.1%
same,"viability, T/C","second compound 0.316 µM, first compound 0.00316 µM",126%
same,"viability, T/C","second compound 0.316 µM, first compound 0.01 µM",96.7%
same,"viability, T/C",[13],80.4%
same,"viability, T/C",[14],128%
same,"viability, T/C",[15],78.1%
same,"viability, T/C",[16],39.4%
same,"viability, T/C","second compound 1 µM, first compound 0.00316 µM",93.1%
same,"viability, T/C","second compound 1 µM, first compound 0.01 µM",112%
same,"viability, T/C",[19],123%
same,"viability, T/C",[20],86.3%
same,"viability, T/C",[21],74.8%
same,"viability, T/C",[22],30.4%
same,"viability, T/C","second compound 3.16 µM, first compound 0.00316 µM",130%
same,"viability, T/C","second compound 3.16 µM, first compound 0.01 µM",96.8%
same,"viability, T/C",[25],100%
same,"viability, T/C",[26],112%
same,"viability, T/C",[27],82.5%
same,"viability, T/C",[28],26.6%
same,"viability, T/C","second compound 10 µM, first compound 0.00316 µM",90.5%
same,"viability, T/C","second compound 10 µM, first compound 0.01 µM",115%
same,"viability, T/C",[31],120%
same,"viability, T/C",[32],86.7%
same,"viability, T/C",[33],57.9%
same,"viability, T/C",[34],24.5%
CNCc1ccc(-c2[nH]c3cc(F)cc4c3c2CCNC4=O)cc1 + Cc1cccc(N(C)C(=O)C2C(O)CCN2c2nc(C)cc(C(F)(F)F)c2C#N)c1,pIC50,second compound 0.0316 µM,< 5.00
same,pIC50,second compound 0.1 µM,< 5.00
same,pIC50,second compound 0.316 µM,< 5.00
same,pIC50,second compound 1 µM,< 5.00
same,pIC50,second compound 3.16 µM,< 5.00
same,pIC50,second compound 10 µM,< 5.00
same,"viability, T/C",[1],90.2%
same,"viability, T/C",[2],97.7%
same,"viability, T/C",[3],101%
same,"viability, T/C",[4],115%
same,"viability, T/C",[5],108%
same,"viability, T/C",[6],81.8%
same,"viability, T/C",[7],107%
same,"viability, T/C",[8],64.9%
same,"viability, T/C",[9],78.2%
same,"viability, T/C",[10],94.9%
same,"viability, T/C",[11],90.6%
same,"viability, T/C",[12],76.8%
same,"viability, T/C",[13],85.5%
same,"viability, T/C",[14],94.5%
same,"viability, T/C",[15],97.2%
same,"viability, T/C",[16],97.2%
same,"viability, T/C",[17],125%
same,"viability, T/C",[18],99.9%
same,"viability, T/C",[19],106%
same,"viability, T/C",[20],78.6%
same,"viability, T/C",[21],88.5%
same,"viability, T/C",[22],100%
same,"viability, T/C",[23],93.2%
same,"viability, T/C",[24],112%
same,"viability, T/C",[25],88.9%
same,"viability, T/C",[26],118%
same,"viability, T/C",[27],88.1%
same,"viability, T/C",[28],102%
same,"viability, T/C",[29],133%
same,"viability, T/C",[30],99.5%
same,"viability, T/C",[31],122%
same,"viability, T/C",[32],80.7%
same,"viability, T/C",[33],96.2%
same,"viability, T/C",[34],83.2%
same,"viability, T/C",[35],121%
same,"viability, T/C",[36],102%
O=C(Nc1ccc(O)c(NS(=O)(=O)c2ccc(F)cc2)c1)c1ccc(-c2ccccc2)cc1 + Cc1cccc(N(C)C(=O)C2C(O)CCN2c2nc(C)cc(C(F)(F)F)c2C#N)c1,pIC50,second compound 0.0316 µM,< 5.00
same,pIC50,second compound 0.1 µM,< 5.00
same,pIC50,second compound 0.316 µM,< 5.00
same,pIC50,second compound 1 µM,< 5.00
same,pIC50,second compound 3.16 µM,< 5.00
same,pIC50,second compound 10 µM,5.09
same,"viability, T/C",[1],116%
same,"viability, T/C",[2],91%
same,"viability, T/C",[3],99.3%
same,"viability, T/C",[4],95%
same,"viability, T/C",[5],89.3%
same,"viability, T/C",[6],64.8%
same,"viability, T/C",[7],83%
same,"viability, T/C",[8],73.9%
same,"viability, T/C",[9],76.1%
same,"viability, T/C",[10],109%
same,"viability, T/C",[11],98.1%
same,"viability, T/C",[12],65.9%
same,"viability, T/C",[13],85.9%
same,"viability, T/C",[14],93.9%
same,"viability, T/C",[15],71.4%
same,"viability, T/C",[16],99.2%
same,"viability, T/C",[17],123%
same,"viability, T/C",[18],65.1%
same,"viability, T/C",[19],91.3%
same,"viability, T/C",[20],80.3%
same,"viability, T/C",[21],100%
same,"viability, T/C",[22],92.2%
same,"viability, T/C",[23],72.8%
same,"viability, T/C",[24],56.2%
same,"viability, T/C",[25],93.2%
same,"viability, T/C",[26],114%
same,"viability, T/C",[27],95.3%
same,"viability, T/C",[28],88.6%
same,"viability, T/C",[29],98.6%
same,"viability, T/C",[30],61%
same,"viability, T/C",[31],92.4%
same,"viability, T/C",[32],106%
same,"viability, T/C",[33],101%
same,"viability, T/C",[34],100%
same,"viability, T/C",[35],71.1%
same,"viability, T/C",[36],45.1%
